{
  "source": "paper PMC12334608",
  "about": "(Nature Communications, 2025)",
  "key": {"[1]": {"biological_target": "T1, ACOX-1.1 (Caenorhabditis elegans, UniProt O62140)", "T1 sequence (O62140 1-674)": "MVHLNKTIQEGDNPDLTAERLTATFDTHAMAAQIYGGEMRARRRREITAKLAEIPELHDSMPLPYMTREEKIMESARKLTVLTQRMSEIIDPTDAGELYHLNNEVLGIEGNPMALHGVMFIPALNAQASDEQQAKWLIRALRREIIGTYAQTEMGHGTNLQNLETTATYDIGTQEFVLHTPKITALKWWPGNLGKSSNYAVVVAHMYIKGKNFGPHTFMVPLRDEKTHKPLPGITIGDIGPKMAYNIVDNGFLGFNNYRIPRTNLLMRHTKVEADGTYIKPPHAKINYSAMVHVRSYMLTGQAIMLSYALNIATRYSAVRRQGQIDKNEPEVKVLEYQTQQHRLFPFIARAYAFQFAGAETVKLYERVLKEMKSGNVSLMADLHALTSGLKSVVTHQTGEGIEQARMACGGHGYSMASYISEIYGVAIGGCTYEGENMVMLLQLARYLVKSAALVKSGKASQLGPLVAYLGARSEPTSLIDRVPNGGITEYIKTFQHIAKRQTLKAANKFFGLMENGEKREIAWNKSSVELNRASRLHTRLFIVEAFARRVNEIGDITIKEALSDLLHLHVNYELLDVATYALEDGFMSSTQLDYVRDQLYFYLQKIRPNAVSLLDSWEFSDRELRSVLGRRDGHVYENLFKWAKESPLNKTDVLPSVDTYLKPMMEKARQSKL", "assay": "ATP hydrolysis by HPLC", "assay_type": "biochemical, C. elegans", "settings": "1 h incubation"}, "[2]": {"biological_target": "T2, apo ACOX-1.1 (Caenorhabditis elegans, UniProt O62140)", "T2 sequence (O62140 1-674)": "T1 sequence (O62140 1-674)", "assay": "FAD and ATP dissociation constants by fluorescence polarization", "assay_type": "binding, C. elegans", "settings": "KD of ACOX-1.1 for ATP, 4 μM apo ACOX-1.1, 100 nM FAD; 95% CI: 6.1–27.5 μM"}, "[3]": {"biological_target": "T3, ACOX-1.1(R295A) (Caenorhabditis elegans, UniProt O62140, R295A)", "T3 sequence (O62140 1-674 R295A)": "T1 sequence (O62140 1-674) with R295A", "assay": "Enzyme-coupled kinetic assay, ACOX-1.1", "assay_type": "biochemical, C. elegans"}},
  "note": "Changes are numbered by the printed parent chain.",
  "data": [
    {"compound": "Nc1ncnc2c1ncn2[C@@H]1O[C@H](COP(=O)(O)OP(=O)(O)OP(=O)(O)O)[C@@H](O)[C@H]1O", "note": "[ATP]", "values": [
      {"measurement": "hydrolysis of ATP by ACOX-1.1", "setting": "[1]", "value": "not hydrolyzed by ACOX-1.1"},
      {"measurement": "Kd", "setting": "[2]", "value": 20.7, "unit": "µM"},
      {"measurement": "response of enzyme activity to ATP", "setting": "[3]", "value": "do not respond to ATP"}
    ]}
  ]
}
